# Experimental data as given in ChEMBL document CHEMBL3727348, “3-(aryl or heteroaryl) methyleneindolin-2-one derivatives as inhibitors of cancer stem cell pathway kinases for the treatment of cancer” (2014).
# pIC50: −log10 of the molar value.
# Assays:
# Type in all cases: functional, cell-based
# ACHN [1] = assay: Cytotoxic activity against human ACHN cancer stem cells incubated for 72 hrs by Cell-titer-Glo luminescence assay
# FaDu [2] = assay: Cytotoxic activity against human FADU cancer stem cells incubated for 72 hrs by Cell-titer-Glo luminescence assay
# ACHN [3] = assay: Cytotoxic activity against human ACHN bulk cells incubated for 72 hrs by Cell-titer-Glo luminescence assay
# FaDu [4] = assay: Cytotoxic activity against human FADU bulk cells incubated for 72 hrs by Cell-titer-Glo luminescence assay
# A549 [5] = assay: Cytotoxic activity against human A549 cancer stem cells incubated for 72 hrs by Cell-titer-Glo luminescence assay; conditions: A549, 72 h
# A549 [6] = assay: Cytotoxic activity against human A549 bulk cells incubated for 72 hrs by Cell-titer-Glo luminescence assay; conditions: A549, 72 h
Structure (SMILES),pIC50 (ACHN [1]),pIC50 (FaDu [2]),pIC50 (ACHN [3]),pIC50 (FaDu [4]),pIC50 (A549 [5]),pIC50 (A549 [6])
CCN(CC)CCNC(=O)c1c(C)[nH]c(/C=C2\C(=O)Nc3ccc(-c4ccc(C=O)cc4)cc32)c1C,5.36,5.12,5.55,4.92,5.23,4.97
CCN(CC)CCNC(=O)c1c(C)[nH]c(/C=C2\C(=O)Nc3ccc(-c4ccc(C#N)c(F)c4)cc32)c1C,5.77,5.46,4.88,4.85,4.92,4.84
CCN(CC)CCNC(=O)c1c(C)[nH]c(/C=C2\C(=O)Nc3cc(-c4cnc5ccccc5n4)ccc32)c1C,5.16,5.65,4.96,5.13,4.37,5.15
CCN(CC)CCNC(=O)c1c(C)[nH]c(/C=C2\C(=O)Nc3ccc(-c4cnc5ccccc5n4)cc32)c1C,5.25,7.40,5.24,5.58,4.37,5.09
CCN(CC)CCNC(=O)c1c(C)[nH]c(/C=C2\C(=O)Nc3ccc(-c4ncccc4C)cc32)c1C,5.73,4.70,5.38,5.12,4.88,5.38
CCN(CC)CCNC(=O)c1c(C)[nH]c(/C=C2\C(=O)Nc3ccc(-c4csc(-n5ccnc5)n4)cc32)c1C,5.52,4.66,5.02,5.25,4.73,5.21
Cc1cc(C)c(/C=C2\C(=O)Nc3ccc(-c4ccc(O)cc4C)cc32)[nH]1,4.68,4.84,4.83,4.83,4.43,4.90
CCN(CC)CCNC(=O)c1c(C)[nH]c(/C=C2\C(=O)Nc3ccc(-c4ccc(-c5ccccc5)nc4)cc32)c1C,6.20,5.40,5.13,5.31,5.19,5.64
CCN(CC)CCNC(=O)c1c(C)[nH]c(/C=C2\C(=O)Nc3ccc(-c4ccc(OC)cn4)cc32)c1C,5.97,6.80,5.19,5.15,5.05,4.97
CCN(CC)CCNC(=O)c1c(C)[nH]c(/C=C2\C(=O)Nc3ccc(-c4nccc5ccccc45)cc32)c1C,6.15,7.52,5.30,5.67,4.86,5.50
CCN(CC)CCN(C)C(=O)c1c(C)[nH]c(/C=C2\C(=O)Nc3ccc(-c4csc(-c5ccccc5)n4)cc32)c1C,6.16,5.44,4.95,4.74,4.98,5.00
CCN(CC)CCNC(=O)c1c(C)[nH]c(/C=C2\C(=O)Nc3ccc(-c4ccc(C(=O)O)s4)cc32)c1C,5.64,5.37,5.69,5.92,5.05,5.66
CCN(CC)CCNC(=O)c1c(C)[nH]c(/C=C2\C(=O)Nc3cc(-c4csc(-n5cccn5)n4)ccc32)c1C,6.77,6.11,5.59,5.28,5.53,5.24
Cc1cc(C)c(/C=C2\C(=O)Nc3ccc(-c4n[nH]c5ccccc45)cc32)[nH]1,5.51,5.27,5.06,5.35,5.14,5.19
O=C1Nc2ccc(-c3csc(C4CCNCC4)n3)cc2/C1=C/c1cc2c([nH]1)CCCC2,5.57,4.92,4.73,4.68,4.66,5.03
CCN(CC)CCNC(=O)c1c(C)[nH]c(/C=C2\C(=O)Nc3ccc(-c4cnc5cn[nH]c5c4)cc32)c1C,4.97,6.80,5.56,5.83,4.58,5.49

Structure (SMILES),pIC50 (ACHN [1]),pIC50 (FaDu [2]),pIC50 (ACHN [3]),pIC50 (FaDu [4]),pIC50 (A549 [5]),pIC50 (A549 [6])
CCN(CC)CCNC(=O)c1c(C)[nH]c(/C=C2\C(=O)Nc3cc(-c4ccc(C(=O)c5ccccc5)cc4)ccc32)c1C,5.79,5.84,5.39,5.35,5.50,5.44
O=C1Nc2ccc(-c3csc(-c4ccccc4)n3)cc2/C1=C/c1cc2c([nH]1)CCCC2,5.60,5.39,4.46,4.69,5.85,
CCN(CC)CCNC(=O)c1c(C)[nH]c(/C=C2\C(=O)Nc3cc(-c4csc(-c5ccccc5)n4)ccc32)c1C,6.72,6.22,,5.74,5.43,
CCN(CC)CCNC(=O)c1c(C)[nH]c(/C=C2\C(=O)Nc3cc(-c4ccc(-c5ccccc5)nc4)ccc32)c1C,6.68,5.95,,,5.44,4.83
Cc1[nH]c(/C=C2\C(=O)Nc3ccc(-c4csc(-c5ccccc5)n4)cc32)c(C)c1S(=O)(=O)N1CCCC1,5.30,5.18,4.90,5.26,,5.54
O=C1Nc2ccc(-c3csc(-c4ccncc4)n3)cc2/C1=C/c1ncc[nH]1,5.04,,6.54,5.47,5.59,4.83
Cc1cc(C)c(/C=C2\C(=O)Nc3cc(-c4cnc5ccccc5n4)ccc32)[nH]1,5.60,5.06,,,5.23,4.74
CCN(CC)CCNC(=O)c1c(C)[nH]c(/C=C2\C(=O)Nc3ccc(-c4ccc5ccccc5n4)cc32)c1C,6.48,,5.56,6.04,5.82,5.74
CCN(CC)CCNC(=O)c1c(C)[nH]c(/C=C2\C(=O)Nc3cc(-c4nccc5ccccc45)ccc32)c1C,5.72,4.61,5.19,5.04,,5.15
CCN(CC)CCNC(=O)c1c(C)[nH]c(/C=C2\C(=O)Nc3ccc(-c4n[nH]c5c(N)cccc45)cc32)c1C,4.51,4.55,4.92,5.15,,4.93
CCN(CC)CCNC(=O)c1c(C)[nH]c(/C=C2\C(=O)Nc3ccc(-c4csc(-c5ccc(C)cc5)n4)cc32)c1C,6.16,5.47,,,4.98,
CCN(CC)CCNC(=O)c1c(C)[nH]c(/C=C2\C(=O)Nc3cc(-c4ccc5ccccc5n4)ccc32)c1C,5.87,5.29,,4.78,5.18,4.79
Cc1ccc(-c2ccc3c(c2)NC(=O)/C3=C\c2[nH]c(C)cc2C)cn1,5.34,5.44,4.66,,4.63,
CCN(CC)CCNC(=O)c1c(C)[nH]c(/C=C2\C(=O)Nc3cc(-c4cnc5ccccc5c4)ccc32)c1C,5.97,5.55,,4.89,4.93,4.80
CCN(CC)CCNC(=O)c1c(C)[nH]c(/C=C2\C(=O)Nc3ccc(-c4csc(C(=O)O)c4)cc32)c1C,5.89,4.85,5.11,,4.85,5.11
CCN(CC)CCNC(=O)c1c(C)[nH]c(/C=C2\C(=O)Nc3cc(-c4ccc(-c5ccccc5)cn4)ccc32)c1C,5.54,5.93,,4.70,5.31,
